Measured values from US8192962B2, “Processes for detecting toxic substances” (Daikin Industries, Ltd., priority 2001, dated 2012).

System: Genes belonging to other category
Assay: DNA chip mRNA expression in yeast, genes belonging to other category (Table 9)
Assay type: cell-based, Saccharomyces cerevisiae S288C
Summary of the method: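 Values are treated/untreated fluorescence ratios from a whole-genome yeast DNA chip hybridized over 12 hours at 65° C with Cy3- or Cy5-labelled cDNA from poly(A) mRNA. Log-phase S288C yeast in YPD at 25° C had received a single toxic chemical for two hours, dosed to slow growth without killing.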

With `S=C([S-])NCCNC(=S)[S-].[Zn+2]` [(11), zinc N,N′-ethylenebis(dithiocarbamate)] the “The level of expressed mRNA in the presence of chemical substance/The level of expressed mRNA in the absence of chemical substance” value (yeast gene YDR427W) was 1.2, the “The level of expressed mRNA in the presence of chemical substance/The level of expressed mRNA in the absence of chemical substance” value (yeast gene YDR432W) was 0.6 and the “The level of expressed mRNA in the presence of chemical substance/The level of expressed mRNA in the absence of chemical substance” value (yeast gene YDR481C) was 1.2. The “The level of expressed mRNA in the presence of chemical substance/The level of expressed mRNA in the absence of chemical substance” value (yeast gene YDR488C) was 0.4, the “The level of expressed mRNA in the presence of chemical substance/The level of expressed mRNA in the absence of chemical substance” value (yeast gene YDR510W) was 1.6 and the “The level of expressed mRNA in the presence of chemical substance/The level of expressed mRNA in the absence of chemical substance” value (yeast gene YEL042W) was 1.6. The “The level of expressed mRNA in the presence of chemical substance/The level of expressed mRNA in the absence of chemical substance” value (yeast gene YEL066W) was 1.9, the “The level of expressed mRNA in the presence of chemical substance/The level of expressed mRNA in the absence of chemical substance” value (yeast gene YER009W) was 1.4 and the “The level of expressed mRNA in the presence of chemical substance/The level of expressed mRNA in the absence of chemical substance” value (yeast gene YER025W) was 1.2. The “The level of expressed mRNA in the presence of chemical substance/The level of expressed mRNA in the absence of chemical substance” value (yeast gene YER039C) was 1.2, the “The level of expressed mRNA in the presence of chemical substance/The level of expressed mRNA in the absence of chemical substance” value (yeast gene YER076C) was 0.7 and the “The level of expressed mRNA in the presence of chemical substance/The level of expressed mRNA in the absence of chemical substance” value (yeast gene YER078C) was 1.3. For the same molecule, the “The level of expressed mRNA in the presence of chemical substance/The level of expressed mRNA in the absence of chemical substance” value (yeast gene YER107C) was 0.7, the “The level of expressed mRNA in the presence of chemical substance/The level of expressed mRNA in the absence of chemical substance” value (yeast gene YER130C) was 0.9 and the “The level of expressed mRNA in the presence of chemical substance/The level of expressed mRNA in the absence of chemical substance” value (yeast gene YER177W) was 1.9. For the same molecule, the “The level of expressed mRNA in the presence of chemical substance/The level of expressed mRNA in the absence of chemical substance” value (yeast gene YFL022C) was 1.2, the “The level of expressed mRNA in the presence of chemical substance/The level of expressed mRNA in the absence of chemical substance” value (yeast gene YFL028C) was 1.3 and the “The level of expressed mRNA in the presence of chemical substance/The level of expressed mRNA in the absence of chemical substance” value (yeast gene YFL038C) was 1.7. For the same molecule, the “The level of expressed mRNA in the presence of chemical substance/The level of expressed mRNA in the absence of chemical substance” value (yeast gene YFL043C) was 1.1, the “The level of expressed mRNA in the presence of chemical substance/The level of expressed mRNA in the absence of chemical substance” value (yeast gene YFR006W) was 1.2 and the “The level of expressed mRNA in the presence of chemical substance/The level of expressed mRNA in the absence of chemical substance” value (yeast gene YFR050C) was 1.4. For the same molecule, the “The level of expressed mRNA in the presence of chemical substance/The level of expressed mRNA in the absence of chemical substance” value (yeast gene YFR051C) was 1.3, the “The level of expressed mRNA in the presence of chemical substance/The level of expressed mRNA in the absence of chemical substance” value (yeast gene YGL094C) was 0.6 and the “The level of expressed mRNA in the presence of chemical substance/The level of expressed mRNA in the absence of chemical substance” value (yeast gene YGL150C) was 0.4. For the same molecule, the “The level of expressed mRNA in the presence of chemical substance/The level of expressed mRNA in the absence of chemical substance” value (yeast gene YGL158W) was 0.2, the “The level of expressed mRNA in the presence of chemical substance/The level of expressed mRNA in the absence of chemical substance” value (yeast gene YGL207W) was 0.7 and the “The level of expressed mRNA in the presence of chemical substance/The level of expressed mRNA in the absence of chemical substance” value (yeast gene YGL229C) was 1.1. For the same molecule, the “The level of expressed mRNA in the presence of chemical substance/The level of expressed mRNA in the absence of chemical substance” value (yeast gene YGR136W) was 1.3, the “The level of expressed mRNA in the presence of chemical substance/The level of expressed mRNA in the absence of chemical substance” value (yeast gene YGR189C) was 1.5 and the “The level of expressed mRNA in the presence of chemical substance/The level of expressed mRNA in the absence of chemical substance” value (yeast gene YGR213C) was 1.6. For the same molecule, the “The level of expressed mRNA in the presence of chemical substance/The level of expressed mRNA in the absence of chemical substance” value (yeast gene YGR232W) was 1.3, the “The level of expressed mRNA in the presence of chemical substance/The level of expressed mRNA in the absence of chemical substance” value (yeast gene YGR239C) was 1.4 and the “The level of expressed mRNA in the presence of chemical substance/The level of expressed mRNA in the absence of chemical substance” value (yeast gene YGR253C) was 2.4. For the same molecule, the “The level of expressed mRNA in the presence of chemical substance/The level of expressed mRNA in the absence of chemical substance” value (yeast gene YGR257C) was 1.2, the “The level of expressed mRNA in the presence of chemical substance/The level of expressed mRNA in the absence of chemical substance” value (yeast gene YHR004C) was 0.8 and the “The level of expressed mRNA in the presence of chemical substance/The level of expressed mRNA in the absence of chemical substance” value (yeast gene YHR071W) was 1.8. For the same molecule, the “The level of expressed mRNA in the presence of chemical substance/The level of expressed mRNA in the absence of chemical substance” value (yeast gene YHR139C) was 3.5, the “The level of expressed mRNA in the presence of chemical substance/The level of expressed mRNA in the absence of chemical substance” value (yeast gene YHR142W) was 1.1 and the “The level of expressed mRNA in the presence of chemical substance/The level of expressed mRNA in the absence of chemical substance” value (yeast gene YHR166C) was 0.6. For the same molecule, the “The level of expressed mRNA in the presence of chemical substance/The level of expressed mRNA in the absence of chemical substance” value (yeast gene YHR185C) was 0.7, the “The level of expressed mRNA in the presence of chemical substance/The level of expressed mRNA in the absence of chemical substance” value (yeast gene YHR195W) was 1.4 and the “The level of expressed mRNA in the presence of chemical substance/The level of expressed mRNA in the absence of chemical substance” value (yeast gene YHR205W) was 0.9. For the same molecule, the “The level of expressed mRNA in the presence of chemical substance/The level of expressed mRNA in the absence of chemical substance” value (yeast gene YIL018W) was 1.2, the “The level of expressed mRNA in the presence of chemical substance/The level of expressed mRNA in the absence of chemical substance” value (yeast gene YIL123W) was 1.2 and the “The level of expressed mRNA in the presence of chemical substance/The level of expressed mRNA in the absence of chemical substance” value (yeast gene YIL140W) was 0.9. For the same molecule, the “The level of expressed mRNA in the presence of chemical substance/The level of expressed mRNA in the absence of chemical substance” value (yeast gene YJL073W) was 0.5, the “The level of expressed mRNA in the presence of chemical substance/The level of expressed mRNA in the absence of chemical substance” value (yeast gene YJL089W) was 0.6 and the “The level of expressed mRNA in the presence of chemical substance/The level of expressed mRNA in the absence of chemical substance” value (yeast gene YJL113W) was 1.2. For the same molecule, the “The level of expressed mRNA in the presence of chemical substance/The level of expressed mRNA in the absence of chemical substance” value (yeast gene YJL116C) was 2.9 and the “The level of expressed mRNA in the presence of chemical substance/The level of expressed mRNA in the absence of chemical substance” value (yeast gene YJL138C) was 1.2.
